# Assays:
# [1] = test system: Saccharomyces cerevisiae diploid wild-type strain (BY4743); assay: Growth inhibition of wild type Saccharomyces cerevisiae in YPD medium (96-well, OD600); assay type: cell-based
# Experimental: Figure 5 Structure-activity studies of hypoculoside. (A) Wild type strain (BY4743), vps35Δ, pep8Δ, vps20Δ, vps27Δ and vps36Δ strains were grown in YPD medium in the presence of hypoculoside or hypoculine at the indicated concentrations. Normalized growth at the different concentrations of hypoculoside and hypoculine tested after 24 hours of incubation at 30 °C is plotted for each strain. (B) Wild type strain (BY4743), vps35Δ, pep8Δ, vps20Δ, vps27Δ and vps36Δ strains were grown in YPD medium in the presence of hypoculoside or phytosphingosine or dihydrosphingosine at the indicated concentrations. Normalized growth at the different concentrations of hypoculoside, phytosphingosine and dihydrosphingosine tested after 24 hours of incubation at 30 °C is plotted for each strain.
# Susceptibility of Candida albicans strain SC5314 to hypoculoside and amphotericin B was determined by a broth microdilution assay using Clinical Laboratory Standards Institute (CLSI) guidelines. Cells grown to exponential phase in YPD medium (1% Yeast extract, 2% Bacto peptone and 2% glucose) were harvested, washed and resuspended in RPMI 1640 medium at a density of 2×10^3 cells/mL. RPMI 1640 medium with L-glutamine without sodium bicarbonate (Sigma) was buffered with 0.165 M morpholinepropanesulfonic acid (MOPS) to a pH of 7.0. Two-fold dilutions of hypoculoside and amphotericin B were prepared such that final concentration of DMSO was 1% in all cultures. Cell suspension was distributed in microtiter plate (200 µL/well) and incubated at 35 °C with 220 rpm for 24 h. The Saccharomyces cerevisiae diploid wild-type strain (BY4743) was used for determining the Inhibitory Concentration (IC) of hypoculoside. Frozen yeast cells were allowed to recover on YPD agar plates and grown in YPD medium for nine generations (OD600 nm ≤ 2). Cells were diluted to OD600 nm of 0.0625 in YPD medium. 200 μL of the diluted yeast culture was transferred into the 96-well microtiter plate having 2-fold serially diluted concentrations of hypoculoside. Cells were incubated in a microplate reader for 16–24 hours at 30 °C with shaking. IC of hypoculoside was computed by comparing the growth of treated versus control cells.
# [2] = test system: Klebsiella aerogenes (ATCC 13048); assay: Antibacterial growth inhibition assay; assay type: cell-based; settings: Gram-negative
# Experimental: (§1) Effect of hypoculoside on the growth of three bacterial strains Staphylococcus aureus (ATCC 25923), Pseudomonas aeruginosa (ATCC 9027) and Klebsiella aerogenes (ATCC 13048) was assessed as previously described. Cytotoxicity of hypoculoside on the A549 human lung cell line and the pancreatic carcinoma cell lines MIA PaCa-2 and PANC-1 was determined as described before. A549 and MIA PaCa-2 were seeded at 1,500 cells per well, and PANC-1 cells were seeded at 2,500 cells per well in a 384-well microplate. Cells were treated with hypoculoside at various concentrations and incubated for 72 hours at 37 °C in the presence of 5% CO2. Cytotoxic effect of hypoculoside was measured using the PrestoBlue™ cell viability reagent (Life Technologies). Following incubation of the microplates with the dye for 2 hours, the fluorescence reading (Excitation/Emission: 560 nm/590 nm) was recorded using the Tecan Infinite M1000 Pro reader.
# (§2) Legends for Supplementary figures and tables
# (§3) Figure S1 Analysis of hypoculoside by MS/MS
# (§4) Collision-Induced dissociation (CID) MS/MS fragmentation spectra of hypoculoside (8) generated at energies of 10 eV, 20 eV and 40 eV are depicted in panels A, B and C […]
# (§5) Figure S2 Hypoculoside has antifungal, antibacterial and mammalian cytotoxic […]
# (§6) A. Logarithmically growing Candida albicans cells were exposed to hypoculoside and amphotericin B at the indicated concentrations in triplicates in a 96-well microplate. A picture of the microplate after 24 hours of incubation at 30 °C is […]
# (§7) B. Saccharomyces cerevisiae cultures in duplicate were treated with hypoculoside at the indicated concentrations in YPD medium at 30 °C for 24 hours. Growth of the yeast cultures as measured by OD600 nm is plotted against hypoculoside concentration. Yeast cells treated with either DMSO or 21 µM hypoculoside for 24 hours were then washed in YPD and plated at different dilutions on a YPD agar and incubated at 30 °C. The YPD agar plate was photographed after 2 […]
# C. […]
# [3] = test system: Pseudomonas aeruginosa (ATCC 9027); assay: Antibacterial growth inhibition assay; assay type: cell-based; settings: Gram-negative
# Experimental: as §1, §2, §3, §4, §5, §6, §7
# C. […]
# [4] = test system: Staphylococcus aureus (ATCC 25923); assay: Antibacterial growth inhibition assay; assay type: cell-based; settings: ATCC25923, Gram-positive, read-out: IC50 against Staphylococcus aureus
# Experimental: as §1, §2, §3, §4, §5, §6, §7
# C. […]
# [5] = test system: BY4743 cells; assay: Propidium iodide (PI)-staining assay of plasma membrane integrity; assay type: cell-based, Saccharomyces cerevisiae; settings: 5.3 µM, after 2 hours
# Experimental: Figure 8 Hypoculoside but not hypoculine disrupts the membrane integrity of yeast cells. (A) Wild type yeast cells pre-treated with either DMSO or hypoculoside (5.4 μM) were exposed to FM 4-64FX. Uptake of FM 4-64FX after 0′, 30′ and 120′ was analyzed by fluorescence microscopy of fixed cells. (B) Yeast cells were incubated with either DMSO or hypoculoside or hypoculine at different concentrations (1.8, 3.5 and 5.3 µM) for 30′ and 2 hours. They were then treated with propidium iodide (PI) and percentage of PI-staining cells was assayed by fluorescence microscopy. Representative images of cells visualized by bright field and fluorescence microscopy are shown along with quantification of PI-staining cells (N = 100 cells) in (C).
# We then tested whether hypoculoside causes membrane leakage using the membrane impermeant dye propidium iodide (PI). […] We then incubated the cells with PI and visualized its uptake by fluorescence microscopy. […]
# BY4743 cells (OD600 nm ≈ 1) were exposed to various concentrations of hypoculoside or hypoculine or DMSO in YPD for 30′ and 2 hours. […] PI uptake by cells was assayed by bright-field and fluorescence microscopy [Excitation/Emission (nm): 535/617] and the percentage of PI-staining cells (N ≥ 100) was calculated.
structure (smiles),measurement,setting,value
"CC(N)C(O)CCCCCCCCCCCCCCCCCCC(O)C(C)OC1OC(CO)C(O)C(O)C1O (stereo not shown) [hypoculoside, Hypoculoside]",concentration that inhibited the growth of wild type cells,"[1]; BY4743, YPD, 24 hours at 30 °C (Fig. 5A)",11 µM
same,IC50,"[1]; Saccharomyces cerevisiae, read-out: IC50 for growth of Saccharomyces cerevisiae cells",7.2 µM
same,inhibition at 5.5 µM,"[1]; Saccharomyces cerevisiae, 5.5 µM, YPD, 24 hours at 30 °C",10%
same,inhibitory activity against Klebsiella aerogenes,[2],not against Gram-negative bacteria
same,inhibitory activity against Pseudomonas aeruginosa,[3],not against Gram-negative bacteria
same,IC50,[4],11.7 µM
same,cells that had internalized PI,[5],about 60%

# — PMC6345779, “Hypoculoside, a sphingoid base-like compound from Acremonium disrupts the membrane integrity of yeast cells” (Scientific Reports, 2019)
